Molecules are shown by their SMILES.

Series [1] concerns CYP2B6 activity. Description: CYP enzyme activity in cultured human hepatocytes, CYP2B6. The note with it: 1000 μM, range from three donors. It counts as in vitro ADME.
Series [2] relates to CYP2B6 mRNA. Description: CYP mRNA level (qRT-PCR) in cultured human hepatocytes, CYP2B6. Conditions: CYP2B6; 1000 μM; range from three donors. For orientation: Real-time PCR tracks product formation cycle by cycle.
Series [3] has as its system Uveal melanoma cell lines (92-1, MP41, MP38, MP46) and non-small cell lung cancer cells (NCIH1299). Description: 3-day growth inhibition, Compound B. It counts as cell-based. The note with it: 92-1, MP41, MP38, MP46, NCIH1299; 3 days, 0 to 10 μM.
The test system of series [4] is Uveal melanoma cell lines, 92-1 or MP41. Description: 3-day growth inhibition, Compound B compared with clinical PKC and MEK inhibitors. It counts as cell-based.
The target in series [5] is CYP2C19 (Homo sapiens, UniProt P33261). Description: Selective chemical inhibition of compound of formula (I) depletion in human liver microsomes, CYP2C19. Conditions: human, human liver microsomes, probe compound of formula (I) (depletion); Time-dependent inhibitor; targeted CYP 2C19; inhibitor 10 μM. On the set-up: from tissue; host or cells: human liver microsomes. It counts as in vitro ADME. (Liver microsomes are a subcellular fraction often used to study metabolism.)
CYP2C19, sequence (P33261 whole entry): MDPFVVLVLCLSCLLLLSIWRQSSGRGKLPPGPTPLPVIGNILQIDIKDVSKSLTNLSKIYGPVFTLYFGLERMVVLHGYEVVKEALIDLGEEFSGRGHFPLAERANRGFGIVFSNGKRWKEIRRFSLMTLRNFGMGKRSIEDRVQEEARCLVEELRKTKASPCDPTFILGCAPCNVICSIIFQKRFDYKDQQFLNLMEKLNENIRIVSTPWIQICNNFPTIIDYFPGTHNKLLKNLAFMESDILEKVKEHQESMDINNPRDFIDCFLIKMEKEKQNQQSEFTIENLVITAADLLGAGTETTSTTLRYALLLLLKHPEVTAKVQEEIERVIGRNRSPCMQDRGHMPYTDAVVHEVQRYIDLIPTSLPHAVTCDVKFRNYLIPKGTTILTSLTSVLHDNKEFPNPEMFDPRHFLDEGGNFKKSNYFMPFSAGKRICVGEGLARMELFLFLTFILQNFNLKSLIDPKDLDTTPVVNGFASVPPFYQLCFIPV

Series [6] concerns the target T1, 2C8 (Homo sapiens, UniProt P10632).
T1 construct: from tissue; host or cells: human liver microsomes
Description: Selective chemical inhibition of compound of formula (I) depletion in human liver microsomes, CYP2C8. The format is in vitro ADME. The note with it: Time-dependent inhibitor; targeted CYP 2C8; inhibitor 100 μM.

The subject of series [7] is CYP1A2 enzyme activity. Description: CYP enzyme activity in cultured human hepatocytes, CYP1A2. The format is in vitro ADME. The note with it: 50 μM, range from three donors.
Series [8] relates to CYP1A2 mRNA. Description: CYP mRNA level (qRT-PCR) in cultured human hepatocytes, CYP1A2. The note with it: 50 μM, range of fold change observed from three donors.
Series [9] deals with T2, CYP1A2 (Homo sapiens, UniProt P05177).
T2 sequence (P05177 1-516): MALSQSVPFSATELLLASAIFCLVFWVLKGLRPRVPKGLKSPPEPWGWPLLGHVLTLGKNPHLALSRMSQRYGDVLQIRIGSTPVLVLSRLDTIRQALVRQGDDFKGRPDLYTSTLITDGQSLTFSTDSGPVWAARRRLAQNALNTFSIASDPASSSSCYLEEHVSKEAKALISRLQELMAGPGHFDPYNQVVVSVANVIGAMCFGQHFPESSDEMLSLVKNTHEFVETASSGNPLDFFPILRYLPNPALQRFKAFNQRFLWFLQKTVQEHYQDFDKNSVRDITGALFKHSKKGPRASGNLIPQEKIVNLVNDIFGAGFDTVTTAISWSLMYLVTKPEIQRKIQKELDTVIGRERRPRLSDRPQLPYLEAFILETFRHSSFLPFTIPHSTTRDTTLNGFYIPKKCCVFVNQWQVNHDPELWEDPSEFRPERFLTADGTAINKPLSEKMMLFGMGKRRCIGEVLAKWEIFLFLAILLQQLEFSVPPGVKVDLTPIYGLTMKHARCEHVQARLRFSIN
Description: in vitro.

The target in series [10] is CYP2C9 (Homo sapiens, UniProt P11712). Description: in vitro.
CYP2C9, sequence (P11712 whole entry): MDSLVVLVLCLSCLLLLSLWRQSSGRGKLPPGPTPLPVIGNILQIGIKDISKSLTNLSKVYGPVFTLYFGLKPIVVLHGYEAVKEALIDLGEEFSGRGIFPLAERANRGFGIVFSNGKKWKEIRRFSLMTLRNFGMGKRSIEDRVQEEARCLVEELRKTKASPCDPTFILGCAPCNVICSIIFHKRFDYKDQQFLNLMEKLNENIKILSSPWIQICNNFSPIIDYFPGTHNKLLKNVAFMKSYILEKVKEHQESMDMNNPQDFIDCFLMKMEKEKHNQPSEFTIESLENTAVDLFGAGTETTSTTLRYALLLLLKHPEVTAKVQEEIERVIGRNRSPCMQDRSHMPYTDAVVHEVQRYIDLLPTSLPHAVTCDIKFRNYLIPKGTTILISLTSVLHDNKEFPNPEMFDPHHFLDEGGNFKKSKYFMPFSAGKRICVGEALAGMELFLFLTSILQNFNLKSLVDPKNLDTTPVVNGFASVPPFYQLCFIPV
Series [11] has as its system parental MP41 cells and PKC inhibitor (PKCl)-resistant cells. Description: 7-day growth inhibition assay, parental and PKC inhibitor-resistant cells. The format is cell-based. Conditions: 7-day assay.
Series [12] has as its target T3, CYP2B6 (Homo sapiens, UniProt P20813).
T3 sequence (P20813 1-491): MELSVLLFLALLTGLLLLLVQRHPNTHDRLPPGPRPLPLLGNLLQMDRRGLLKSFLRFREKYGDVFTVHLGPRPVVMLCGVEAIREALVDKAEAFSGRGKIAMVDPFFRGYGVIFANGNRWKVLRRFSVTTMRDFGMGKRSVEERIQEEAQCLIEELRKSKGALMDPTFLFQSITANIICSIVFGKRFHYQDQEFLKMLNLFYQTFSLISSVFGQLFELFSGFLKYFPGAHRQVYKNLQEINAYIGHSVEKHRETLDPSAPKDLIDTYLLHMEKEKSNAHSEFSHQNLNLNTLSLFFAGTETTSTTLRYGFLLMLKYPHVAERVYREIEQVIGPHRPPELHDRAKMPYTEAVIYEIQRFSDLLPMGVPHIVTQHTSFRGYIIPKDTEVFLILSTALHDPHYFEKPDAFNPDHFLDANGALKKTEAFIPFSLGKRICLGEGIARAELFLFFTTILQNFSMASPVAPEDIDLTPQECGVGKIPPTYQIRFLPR
Put plainly: Selective chemical inhibition of compound of formula (I) depletion in human liver microsomes, CYP2B6. It counts as in vitro ADME. On the set-up: from tissue; host or cells: human liver microsomes. Conditions: probe compound of formula (I) (depletion), Time-dependent inhibitor, targeted CYP 2B6, inhibitor 30 μM.

Series [13] relates to CYP2C19 mRNA. Put plainly: CYP mRNA level in cultured human hepatocytes, CYP2C19. Conditions: CYP2C19; 20 μM; range from three donors. It counts as in vitro ADME.
Series [14] addresses 2D6 (Homo sapiens, UniProt P10635). Put plainly: Selective chemical inhibition of compound of formula (I) depletion in human liver microsomes, CYP2D6. Conditions: Direct inhibitor; targeted CYP 2D6; inhibitor 5 μM.
Series [15] deals with CYP3A4/5. Description: Selective chemical inhibition of compound of formula (I) depletion in human liver microsomes, CYP3A4/5. The note with it: human.
Series [16] deals with Uveal melanoma cell lines, 92-1 or MP41. Description: 3-day growth inhibition, Compound A compared with clinical PKC and MEK inhibitors. It counts as cell-based.
The target in series [17] is T4, CYP2A6 (Homo sapiens, UniProt P11509).
T4 construct: from tissue; host or cells: human liver microsomes
T4 sequence (P11509 whole entry): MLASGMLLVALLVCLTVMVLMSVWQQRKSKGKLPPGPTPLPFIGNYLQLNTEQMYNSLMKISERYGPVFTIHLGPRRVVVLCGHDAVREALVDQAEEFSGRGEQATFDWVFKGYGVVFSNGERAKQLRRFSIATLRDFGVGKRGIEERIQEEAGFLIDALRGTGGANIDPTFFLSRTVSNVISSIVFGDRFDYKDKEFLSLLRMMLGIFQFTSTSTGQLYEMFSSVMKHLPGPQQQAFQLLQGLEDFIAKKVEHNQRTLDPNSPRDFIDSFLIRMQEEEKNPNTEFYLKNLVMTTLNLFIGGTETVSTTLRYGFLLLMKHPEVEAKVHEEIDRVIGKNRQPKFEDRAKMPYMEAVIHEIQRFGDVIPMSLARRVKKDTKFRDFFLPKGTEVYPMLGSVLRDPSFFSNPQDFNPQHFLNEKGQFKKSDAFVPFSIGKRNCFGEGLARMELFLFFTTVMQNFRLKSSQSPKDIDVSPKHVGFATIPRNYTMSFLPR
Put plainly: Selective chemical inhibition of compound of formula (I) depletion in human liver microsomes, CYP2A6. The note with it: probe compound of formula (I) (depletion), Direct inhibitor, targeted CYP 2A6, inhibitor 10 μM. It counts as in vitro ADME.

T1 sequence (P10632 whole entry): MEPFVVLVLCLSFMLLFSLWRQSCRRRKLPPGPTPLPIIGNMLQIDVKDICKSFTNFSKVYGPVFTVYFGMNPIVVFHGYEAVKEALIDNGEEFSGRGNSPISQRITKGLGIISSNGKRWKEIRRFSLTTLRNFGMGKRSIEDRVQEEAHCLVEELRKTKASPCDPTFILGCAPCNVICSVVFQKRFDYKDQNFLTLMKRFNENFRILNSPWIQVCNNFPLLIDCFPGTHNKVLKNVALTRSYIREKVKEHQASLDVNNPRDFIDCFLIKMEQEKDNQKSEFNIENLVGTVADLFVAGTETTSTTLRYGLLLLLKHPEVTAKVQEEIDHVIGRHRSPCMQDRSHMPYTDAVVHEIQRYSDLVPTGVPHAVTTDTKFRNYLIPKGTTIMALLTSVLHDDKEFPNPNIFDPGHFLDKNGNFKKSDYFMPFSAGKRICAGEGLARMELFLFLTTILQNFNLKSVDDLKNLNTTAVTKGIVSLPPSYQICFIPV
2D6, sequence (P10635 whole entry): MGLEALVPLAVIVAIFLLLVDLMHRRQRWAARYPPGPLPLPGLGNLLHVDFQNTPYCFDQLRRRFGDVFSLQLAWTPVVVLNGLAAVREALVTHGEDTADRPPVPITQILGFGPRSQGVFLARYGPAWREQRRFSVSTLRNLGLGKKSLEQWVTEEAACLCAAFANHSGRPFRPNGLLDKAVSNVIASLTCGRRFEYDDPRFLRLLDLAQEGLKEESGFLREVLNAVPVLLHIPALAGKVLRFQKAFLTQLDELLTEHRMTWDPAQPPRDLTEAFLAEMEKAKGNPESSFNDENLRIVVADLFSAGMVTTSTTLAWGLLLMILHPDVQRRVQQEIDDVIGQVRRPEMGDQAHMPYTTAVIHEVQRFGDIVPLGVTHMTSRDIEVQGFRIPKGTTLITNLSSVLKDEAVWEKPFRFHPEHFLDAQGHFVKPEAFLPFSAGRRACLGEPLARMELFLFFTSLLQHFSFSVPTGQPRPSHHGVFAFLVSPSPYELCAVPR

For `CCC1(c2ccccc2)C(=O)NC(=O)NC1=O` [Phenobarbital, reference compound], the “Positive Control Enzyme Activity Fold Change” value in [1] is 11.9-16.7. Further, in [2], the “Positive Control mRNA Fold Change” value is 15.3-39.6.

`CSCC[C@H](NC(=O)c1ccn(S(C)(=O)=O)c1)C(=O)Nc1nc(-c2cccc(-c3ccncc3)c2)cs1` [Compound B]: in series [3], the “growth inhibition in the cell lines” value is recorded as “potent growth inhibition”. Besides, in [4] (92-1 or MP41), the “onset of growth inhibition versus clinical PKC and MEK inhibitors” value is “faster onset of growth inhibition”. In addition, the “growth inhibition of uveal melanoma cells versus clinical PKC and MEK inhibitors” value in series [4] (92-1 or MP41, 3 days, vs LXS196 and selumetinib) is given as “more potent effects on growth inhibition”.

Broadly, the inhibition is the relative decrease from the control value, in per cent. Lower therefore signals a response near the control. In series [5], `COc1ccc2nc([S@@+]([O-])Cc3ncc(C)c(OC)c3C)[nH]c2c1` [Esomeprazole, reference compound] yielded an inhibition at 10 µM of 27.1%.

With `Cc1ccc(C)c(OCCCC(C)(C)C(=O)O[C@@H]2O[C@H](C(=O)O)[C@@H](O)[C@H](O)[C@H]2O)c1` [Gemfibrozil glucuronide], in series [6], the “% Inhibition of compound of formula (I) depletion in human liver microsomes” value is listed as “No”.

Take `COc1ccc2[nH]c([S+]([O-])Cc3ncc(C)c(OC)c3C)nc2c1` (stereo not shown) [Omeprazole, reference compound]: the “Positive Control Enzyme Activity Fold Change” value in series [7] was 20.0-93.9. For the same molecule, in [8], the “Positive Control mRNA Fold Change” value is 50.2-118.

The molecule `Cc1nc2c([nH]1)c(=O)n(C)c(=O)n2Cc1ccco1` [Furafylline] displayed an inhibition at 10 µM in [9] of 1.9%.

As to `O=C(O)COc1ccc(C(=O)c2cccs2)c(Cl)c1Cl` [Tienilic acid], the inhibition at 20 µM in series [10] was found to be 2.4%.

Take `CC1(N)CCN(c2cccnc2NC(=O)c2nc(-c3ncccc3C(F)(F)F)cnc2N)CC1` [LXS196]: in series [11], the “sensitivity of PKCl-resistant cells relative to parental MP41 cells” value is given as “could tolerate growth at higher concentrations”.

As to `c1ccc(C2(N3CCCCC3)CCCCC2)cc1` [Phencyclidine], the inhibition at 30 µM in [12] was found to be 5.7%.

Regarding `CO[C@H]1/C=C/O[C@@]2(C)Oc3c(C)c(O)c4c(O)c(c(/C=N/N5CCN(C)CC5)c(O)c4c3C2=O)NC(=O)/C(C)=C\C=C\[C@H](C)[C@H](O)[C@@H](C)[C@@H](O)[C@@H](C)[C@H](OC(C)=O)[C@@H]1C` [Rifampin, reference compound], the “Positive Control mRNA Fold Change” value in series [13] was 0.61-1.01.

Regarding `C=C[C@H]1C[N@@]2CC[C@H]1C[C@@H]2[C@@H](O)c1ccnc2ccc(OC)cc12` [Quinidine], in series [14], the “% Inhibition of compound of formula (I) depletion in human liver microsomes” value is reported as “No”.

For `CC(=O)N1CCN(c2ccc(OCC3COC(Cn4ccnc4)(c4ccc(Cl)cc4Cl)O3)cc2)CC1` (stereo not shown) [Ketoconazole, reference compound], the inhibition at 1 µM in series [15] is 83.3%.

On to `CSCC[C@H](NC(=O)c1ccc(N)cc1)C(=O)Nc1nc(-c2cccc(-c3ccncc3)c2)cs1` [Compound A], for which the “onset of inhibition versus clinical PKC and MEK inhibitors” value in series [16] (92-1 or MP41) is on record as “faster onset of inhibition”. Moreover, the “growth inhibition of uveal melanoma cells versus clinical PKC and MEK inhibitors” value in series [16] (92-1 or MP41, 3 days, 0 to 10 μM, vs LXS196 and selumetinib) was “comparable growth inhibition”.

On to `N#Cc1ccc(C(c2ccc(C#N)cc2)n2cncn2)cc1` [Letrozole], for which the inhibition at 10 µM in series [17] turned out to be 9.1%.

The values are drawn from US20240189318A1, “THERAPEUTIC REGIMENS OF AN INHIBITOR OF THE ENZYMATIC ACTIVITY OF BRG1 AND BRM” (FOGHORN THERAPEUTICS INC., priority 2021, published 2024).
